Consider nine molecules from patent US11731946B2, “Broad spectrum antivirulence, anti-persistence compounds” (priority 2017, dated 2023).

One test concerns MvfR regulon. Briefly: Quantification of pyocyanin (OD520nm of chloroform-extracted cultures). In kind it is cell-based, P. aeruginosa. The conditions noted are these: Pseudomonas aeruginosa, read-out: IC50 pyocyanin (μM).
In the case of `N#Cc1ccc(NC(=O)CC(=O)Nc2ccc(F)cc2)cc1` [Compound 48], the IC50 is 7.1 µM.

The same test, now with this note: Pseudomonas aeruginosa, read-out: pyocyanin @50 uM (%), compound at 50 uM.
Take `Cc1cc(F)ccc1NCC(=O)Nc1ccc(C(F)(F)F)cc1` [Compound 3]: the activity at 50 µM worked out at 60.9%.
Same read-out and setting: the result for `Cc1cc(F)ccc1NCC(=O)Nc1ccccc1C#N` [Compound 4] reads 113%; that for `Cc1cc(F)ccc1NCC(=O)Nc1ccc(F)cc1` [Compound 5], 83.6%; that for `Cc1cc(F)ccc1OCC(=O)Nc1ccc(C#N)cc1` [Compound 6], 98.4%.
For `Cc1cc(F)ccc1NC(C)C(=O)Nc1ccc(C#N)cc1` (stereo not drawn) [Compound 7], the activity at 50 µM is 110%.
Take `Cc1cc(F)ccc1OCC(=O)Nc1ccc(F)cc1` [Compound 8]: the activity at 50 µM is 91.1%.
Same read-out and setting: the result for `N#Cc1ccc(NC(=O)CNc2ccc(F)cc2)cc1` [Compound 9] reads 85.6%; that for `Cc1ccccc1NCC(=O)Nc1ccc(C#N)cc1` [Compound 10], 94.3%.
Same read-out and setting: the result for `N#Cc1ccc(NC(=O)CC(=O)Nc2ccc(F)cc2)cc1` [Compound 48] reads 15.7%.

The next test deals with MvfR regulon. The experiment in a line: LC/MS quantification of HAQs and related molecules in bacterial culture supernatants. Type of test: cell-based, P. aeruginosa. The following applies: Pseudomonas aeruginosa, PA14, read-out: IC50 2-AA (μM).
Consider `N#Cc1ccc(NC(=O)CC(=O)Nc2ccc(F)cc2)cc1` [Compound 48], for which the IC50 stood at 20.9 µM.

The same test, now with this note: Pseudomonas aeruginosa, PA14, read-out: IC50 DHQ (μM).
Regarding `N#Cc1ccc(NC(=O)CC(=O)Nc2ccc(F)cc2)cc1` [Compound 48], the IC50 stood at 33 µM.

The same test, now with this note: Pseudomonas aeruginosa, PA14, read-out: IC50 HHQ (μM).
As to `N#Cc1ccc(NC(=O)CC(=O)Nc2ccc(F)cc2)cc1` [Compound 48], the IC50 was 47.5 µM.

The test is the same for the next values; noted with them: Pseudomonas aeruginosa, PA14, read-out: IC50 PQS (μM).
As for `N#Cc1ccc(NC(=O)CC(=O)Nc2ccc(F)cc2)cc1` [Compound 48], the IC50 was found to be 36.5 µM.

The same test, now with this note: Pseudomonas aeruginosa, read-out: 2-AA @50 uM.
As to `Cc1cc(F)ccc1NCC(=O)Nc1ccc(C(F)(F)F)cc1` [Compound 3], the activity at 50 µM is 68.3%.
With `Cc1cc(F)ccc1NCC(=O)Nc1ccccc1C#N` [Compound 4], the activity at 50 µM is 123%.
On the same count and under the same terms, in the case of `Cc1cc(F)ccc1NCC(=O)Nc1ccc(F)cc1` [Compound 5] it was 80.4%; in that of `Cc1cc(F)ccc1OCC(=O)Nc1ccc(C#N)cc1` [Compound 6], 63.4%.
On to `Cc1cc(F)ccc1NC(C)C(=O)Nc1ccc(C#N)cc1` (stereo not drawn) [Compound 7], for which the activity at 50 µM amounted to 152%.
Still for that read-out and setting: in the case of `Cc1cc(F)ccc1OCC(=O)Nc1ccc(F)cc1` [Compound 8] it was 71.7%; in that of `N#Cc1ccc(NC(=O)CNc2ccc(F)cc2)cc1` [Compound 9], 112%; in that of `Cc1ccccc1NCC(=O)Nc1ccc(C#N)cc1` [Compound 10], 63.9%.
Still for that read-out and setting: the result for `N#Cc1ccc(NC(=O)CC(=O)Nc2ccc(F)cc2)cc1` [Compound 48] reads 37.3%.

Staying with this test, now noted: Pseudomonas aeruginosa, read-out: AA @50 uM.
`N#Cc1ccc(NC(=O)CC(=O)Nc2ccc(F)cc2)cc1` [Compound 48]: the activity at 50 µM was 187%.

Staying with this test, now noted: Pseudomonas aeruginosa, read-out: DHQ @50 uM.
Regarding `Cc1cc(F)ccc1NCC(=O)Nc1ccc(C(F)(F)F)cc1` [Compound 3], the activity at 50 µM amounted to 81.5%.
Turning to `Cc1cc(F)ccc1NCC(=O)Nc1ccc(F)cc1` [Compound 5], the activity at 50 µM turned out to be 84.7%.
The same measure, in the same setting: in the case of `Cc1cc(F)ccc1OCC(=O)Nc1ccc(C#N)cc1` [Compound 6] it was 82.7%; in that of `Cc1cc(F)ccc1OCC(=O)Nc1ccc(F)cc1` [Compound 8], 67.8%.
Same read-out and setting: in the case of `Cc1ccccc1NCC(=O)Nc1ccc(C#N)cc1` [Compound 10] it was 59.5%; in that of `N#Cc1ccc(NC(=O)CC(=O)Nc2ccc(F)cc2)cc1` [Compound 48], 68.3%.

The test is the same for the next values; noted with them: Pseudomonas aeruginosa, read-out: HHQ @50 uM (%).
Turning to `Cc1cc(F)ccc1NCC(=O)Nc1ccc(C(F)(F)F)cc1` [Compound 3], the activity at 50 µM was found to be 110%.
The same measure, in the same setting: the result for `Cc1cc(F)ccc1NCC(=O)Nc1ccccc1C#N` [Compound 4] reads 99.2%.
On the same count and under the same terms, the result for `Cc1cc(F)ccc1NCC(=O)Nc1ccc(F)cc1` [Compound 5] reads 94.6%.
Still for that read-out and setting: the result for `Cc1cc(F)ccc1OCC(=O)Nc1ccc(C#N)cc1` [Compound 6] reads 114%; that for `Cc1cc(F)ccc1NC(C)C(=O)Nc1ccc(C#N)cc1` (stereo not drawn) [Compound 7], 106%; that for `Cc1cc(F)ccc1OCC(=O)Nc1ccc(F)cc1` [Compound 8], 83.5%.
As for `N#Cc1ccc(NC(=O)CNc2ccc(F)cc2)cc1` [Compound 9], the activity at 50 µM amounted to 87.1%.
Still for that read-out and setting: the result for `Cc1ccccc1NCC(=O)Nc1ccc(C#N)cc1` [Compound 10] reads 76.4%; that for `N#Cc1ccc(NC(=O)CC(=O)Nc2ccc(F)cc2)cc1` [Compound 48], 56.8%.

Still in this test, the particulars now being: Pseudomonas aeruginosa, read-out: HQNO @50 uM (%).
Turning to `Cc1cc(F)ccc1NCC(=O)Nc1ccc(C(F)(F)F)cc1` [Compound 3], the activity at 50 µM came to 86.5%.
The same measure, in the same setting: in the case of `Cc1cc(F)ccc1NCC(=O)Nc1ccccc1C#N` [Compound 4] it was 111%; in that of `Cc1cc(F)ccc1NCC(=O)Nc1ccc(F)cc1` [Compound 5], 92.3%.
Same read-out and setting: the result for `Cc1cc(F)ccc1OCC(=O)Nc1ccc(C#N)cc1` [Compound 6] reads 111%.
For the molecule `Cc1cc(F)ccc1NC(C)C(=O)Nc1ccc(C#N)cc1` (stereo not drawn) [Compound 7], the activity at 50 µM came to 131%.
Still for that read-out and setting: the result for `Cc1cc(F)ccc1OCC(=O)Nc1ccc(F)cc1` [Compound 8] reads 94%; that for `N#Cc1ccc(NC(=O)CNc2ccc(F)cc2)cc1` [Compound 9], 108%.
On the same count and under the same terms, the result for `Cc1ccccc1NCC(=O)Nc1ccc(C#N)cc1` [Compound 10] reads 92.5%; that for `N#Cc1ccc(NC(=O)CC(=O)Nc2ccc(F)cc2)cc1` [Compound 48], 58.5%.

The same test, now with this note: Pseudomonas aeruginosa, read-out: IC50 AA (increase; μM).
Consider `N#Cc1ccc(NC(=O)CC(=O)Nc2ccc(F)cc2)cc1` [Compound 48], for which the IC50 turned out to be 42.5 µM.

Staying with this test, now noted: Pseudomonas aeruginosa, read-out: IC50 HQNO (μM).
`N#Cc1ccc(NC(=O)CC(=O)Nc2ccc(F)cc2)cc1` [Compound 48]: the IC50 stood at 33.7 µM.

The same test, now with this note: Pseudomonas aeruginosa, read-out: PQS @50 uM (%).
Regarding `Cc1cc(F)ccc1NCC(=O)Nc1ccc(C(F)(F)F)cc1` [Compound 3], the activity at 50 µM worked out at 93.4%.
On to `Cc1cc(F)ccc1NCC(=O)Nc1ccccc1C#N` [Compound 4], for which the activity at 50 µM was 122%.
The same measure, in the same setting: in the case of `Cc1cc(F)ccc1NCC(=O)Nc1ccc(F)cc1` [Compound 5] it was 88.5%; in that of `Cc1cc(F)ccc1OCC(=O)Nc1ccc(C#N)cc1` [Compound 6], 114%.
Same read-out and setting: in the case of `Cc1cc(F)ccc1NC(C)C(=O)Nc1ccc(C#N)cc1` (stereo not drawn) [Compound 7] it was 115%.
Same read-out and setting: in the case of `Cc1cc(F)ccc1OCC(=O)Nc1ccc(F)cc1` [Compound 8] it was 94.7%.
For the molecule `N#Cc1ccc(NC(=O)CNc2ccc(F)cc2)cc1` [Compound 9], the activity at 50 µM amounted to 124%.
Consider `Cc1ccccc1NCC(=O)Nc1ccc(C#N)cc1` [Compound 10], for which the activity at 50 µM was found to be 124%.
With `N#Cc1ccc(NC(=O)CC(=O)Nc2ccc(F)cc2)cc1` [Compound 48], the activity at 50 µM was 46.7%.

The next test concerns MvfR regulon. The experiment in a line: pqsA gene expression (pqsA-GFP reporter). In kind it is cell-based, P. aeruginosa. The conditions noted are these: Pseudomonas aeruginosa, read-out: IC50 pqsA (μM). How it is done:
Experiments were performed to identify compounds that inhibit the MvfR regulon without altering growth, ultimately attenuating P. aeruginosa infection. MvfR is a LysR-type transcriptional regulator that directs HAQs synthesis, including that of its ligands, 4-hydroxy-2-heptylquinoline (HHQ) and 3,4-dihydroxy-2-heptylquinoline (PQS).
MvfR promotes the production of HAQs by binding to and activating the pqs operon, which encodes enzymes for HAQ synthesis. Anthranilic acid (AA), derived from the phnAB, kynABU, and trpEG pathways, is the precursor for HAQs. pqsA encodes an anthranilate-coenzyme A ligase, which activates anthranilic acid and catalyzes the first committed step to HAQ production. The exact roles of PqsB and PqsC are unknown, though both show homology to acyl-carrier-proteins and both are required for HHQ and PQS production. […] The final gene of the operon, pqsE encodes for a putative hydrolase, and while the protein is not required for the synthesis of HAQs, it is necessary for pyocyanin production.
Nanomolar levels of most of these MvfR antagonists impeded the activity of MvfR and in consequence the MvfR virulence regulated ACRP functions, including: (1) the production of the important pro-acute P. aeruginosa virulence factor pyocyanin (see e.g., FIG. 9A) the efficacy of two of these potent inhibitors, D57 and D88, was also confirmed by testing many different MDR P. aeruginosa clinical isolates (see e.g., FIG. 11A-11B), providing further confidence of their inhibitory potency; (2) the expression of the genes that encode the enzymes catalyzing the synthesis of both pro-acute and pro-persistence MvfR-regulated virulence molecules, 4-hydroxyl-2-alkyl-quinolines (HAQs) and 2-aminoacetophenon (2-AA), as assessed by pqsAGFP reporter gene expression (see e.g., FIG. 9B) and HAQ production showing the levels of MvfR inducers/ligands HHQ and PQS as well as of the molecules critical for biofilm and Antibiotic tolerant/persiters cells formation HQNO and 2-AA (see e.g., FIG. 9C); (3) AT/P cell formation (see e.g., FIGS. 11A, 12A); (4) biofilm formation (see e.g., FIG. 12B); and (5) biofilm dispersal of preformed biofilm by potentiating antibiotic action (see e.g., FIG. 11B).
As to `N#Cc1ccc(NC(=O)CC(=O)Nc2ccc(F)cc2)cc1` [Compound 48], the IC50 was 5.5 µM.

The same test, now with this note: Pseudomonas aeruginosa, read-out: pqsA @50 uM (%), compound at 50 uM.
As for `Cc1cc(F)ccc1NCC(=O)Nc1ccc(C(F)(F)F)cc1` [Compound 3], the activity at 50 µM stood at 46%.
On the same count and under the same terms, the result for `Cc1cc(F)ccc1NCC(=O)Nc1ccccc1C#N` [Compound 4] reads 95.9%; that for `Cc1cc(F)ccc1NCC(=O)Nc1ccc(F)cc1` [Compound 5], 92%.
Same read-out and setting: the result for `Cc1cc(F)ccc1OCC(=O)Nc1ccc(C#N)cc1` [Compound 6] reads 98%.
Same read-out and setting: the result for `Cc1cc(F)ccc1NC(C)C(=O)Nc1ccc(C#N)cc1` (stereo not drawn) [Compound 7] reads 86.8%; that for `Cc1cc(F)ccc1OCC(=O)Nc1ccc(F)cc1` [Compound 8], 78%.
Regarding `N#Cc1ccc(NC(=O)CNc2ccc(F)cc2)cc1` [Compound 9], the activity at 50 µM was 63.2%.
Same read-out and setting: in the case of `Cc1ccccc1NCC(=O)Nc1ccc(C#N)cc1` [Compound 10] it was 92.9%; in that of `N#Cc1ccc(NC(=O)CC(=O)Nc2ccc(F)cc2)cc1` [Compound 48], 9.7%.

What is called IC50 is the concentration needed to halve the response being measured.
